Results reported in article PMC11939078, “TAK-994 mechanistic investigation into drug-induced liver injury” (Toxicological Sciences, 2025).
Read-outs that look alike come from different tables or passages of the source.

Tests used:
[1] = tested on: human liver microtissues + FFA; experiment: Hepatotoxicity in steatosis liver model (free fatty acids); format: cell-based; conditions: Homo sapiens, 336 h; free fatty acids added to medium; read-out: IC50, co-culture (14 days) + FFA (Fig. 3A)
Procedure: Mono and co-culture model cells were exposed to TAK-994 (0.1, 0.3, 1, 3.16, 10, 31.6, or 100 μM in 0.5% DMSO) for 14 days (TAK-994 administered on Days 0, 5, and 9). The cell culture medium was supplemented with free fatty acids of 100 μM of Oleic acid and 66 μM of Palmitic acid. Six replicates were tested for each condition. The vehicle control was 0.5% DMSO, and the positive control was chlorpromazine (0.1, 0.3, 1, 3.16, 10, 31.6, or 100 μM in DMSO). Cellular ATP content was measured in the cell lysate on Day 14 of treatment. LDH release was measured in the cell supernatant on Days 5, 9, and 14 and normalized to lysed controls. Cellular triglyceride content was measured in the microtissues on Day 14.
(§1) Intracellular ATP content in model lysates was measured with the CellTiter-Glo® 2.0 Cell Viability Assay (Catalogue No. G9243, Promega). The Bioluminescent LDH Release Toxicity Assay Kit (Catalogue No. J2380, Promega) was used to assess extracellular LDH release and normalized to lysed controls. ATP, LDH, GSH, and triglycerides were measured according to internal technical operating procedures.

Hepatocyte spheroids = experiment: Hepatocyte spheroid (monoculture, no nonparenchymal cells) cytotoxicity, cellular ATP; format: cell-based, human; conditions: Homo sapiens, Hepatocyte; cellular ATP; read-out: IC50, hepatocyte spheroids (Fig. 2B)
Procedure: (§2) Toxicology of TAK-994 was assessed using lnSphero’s 3D lnSight Human Liver models, based on N-acetyl-L-cysteine causality assay, glutathione depletion assay, and lipopolysaccharide (LPS)-sensitization assay. Hepatotoxicity was assessed in 7- and 14-day mono and co-culture models, in which cells were exposed to TAK-994 (0.1, 0.3, 1, 3.16, 10, 31.6, or 100 μM) […].
(§3) The test system was Human 3D InSight Liver Models, production ID hLiMT_589, cryopreserved primary human hepatocytes (Lot IPDH_18; single donor) in monoculture or in co-culture with cryopreserved primary human nonparenchymal cells (Lot IPHN_17; single donor). Human liver microtissues are composed of roughly 1000 hepatocytes and 1000 non-parenchymal live cells. Non-parenchymal liver cell fractions are expected to be composed of Kupffer cells and liver endothelial cells however, these were not identified.
(§4) Mono and co-culture model cells were exposed to TAK-994 (0.1, 0.3, 1, 3.16, 10, 31.6, or 100 μM in 0.5% DMSO) for 7 days (TAK-994 administered on Days 0 and 4) or 14 days (TAK-994 administered on Days 0, 5, and 9). Six replicates were tested for each condition. The vehicle control was 0.5% DMSO, and the positive control was chlorpromazine (0.1, 0.3, 1, 3.16, 10, 31.6, or 100 μM in DMSO). Cellular ATP content was measured in the cell lysate on Days 7 or 14 of treatment. LDH release was measured in the cell supernatant on Days 4 and 7 or on Days 5, 9, and 14 and normalized to lysed controls.
as §1

human liver microtissues [2] = experiment: Human liver microtissue (co-culture) cytotoxicity, cellular ATP; format: cell-based; conditions: for detection of hepatotoxicity by HepG2 72-h / human liver microtissue assays: retrospective application
Procedure: as §2, §3
The culture medium was 3D InSight Human Liver Maintenance Medium TOX (Catalogue No. CS-07-001, InSphero). The treated cells in 96-well Akura™ plates were incubated in a humidified cell culture incubator (37°C, 5% CO2).
as §4, §1

[3] = HepG2 Glu/Gal 24-h cytotoxicity (mitochondrial toxicity); format: cell-based, human; conditions: human, HepG2 cells
Procedure: (§5) Cytotoxicity of TAK-994 was evaluated in glucose or galactose medium after 24 h and in glucose medium after 72 h in HepG2 cells, with cryopreserved HepG2 cells thawed and seeded onto assay plates at 5,000 cells/well in glucose or galactose medium for the 24-h assay and at 2,500 cells/well in glucose medium for the 72-h assay. After ∼24 h of incubation at 37 °C in 5% CO2, the cells were incubated with test solutions under the same conditions for 24 h for the plate with 5,000 cells/well or 72 h for the plate with 2,500 cells/well. Cytotoxicity of TAK-994 was also assessed using HepG2 cells with CYP3A4 overexpression using a lentivirus vector. HepG2/CYP3A4 cells were incubated in media containing TAK-994 (0.09 to 200 μM), positive control aflatoxin B1 (0.04 to 80 μM), or 1.0% DMSO (negative control). In both cytotoxicity assays, adenosine triphosphate (ATP) content was assessed after incubation using a commercial luminescence assay (CellTiter-Glo; Promega Co., Ltd, WI, United States).
HepG2 cells (American Type Culture Collection [ATCC, VA, USA]) were acclimated to Dulbecco's Modified Eagle Medium (DMEM; Thermo Fisher Scientific, MA, USA) with either high glucose or high galactose and containing 10% FBS for 1 week then cryopreserved. […] After the incubation, CellTiter-Glo® (Promega Co., Ltd., WI, USA) was added to the assay plates, cells were incubated for 30 minutes, and luminescence was recorded to measure the ATP content using an EnVision plate reader (PerkinElmer Co., Ltd., MA, USA). The test compound TAK-994 was evaluated at concentrations of 0.046, 0.14, 0.41, 1.2, 3.7, 11, 33, and 100 μM. Positive controls rotenone and staurosporine were purchased from FUJIFILM Wako Pure Chemical Corporation (Osaka, Japan) and evaluated at concentrations of 0.046, 0.14, 0.41, 1.2, 3.7, 11, 33, and 100 μM in DMSO (rotenone) or 0.0046, 0.014, 0.041, 0.12, 0.37, 1.1 , 3.3, and 10 μM in DMSO (staurosporine). […]

[4] = HepG2 72-h cytotoxicity assay (glucose medium, ATP content); format: cell-based, human; conditions: human, HepG2 cells
Procedure: as §5
HepG2 cells (American Type Culture Collection [ATCC, VA, USA]) were acclimated to Dulbecco's Modified Eagle Medium (DMEM; Thermo Fisher Scientific, MA, USA) with either high glucose or high galactose and containing 10% FBS for 1 week then cryopreserved. The cryopreserved HepG2 cells were thawed, cultured for 24 hours, then seeded at 5000 cells/well in glucose or galactose medium for the 24-hour assay and at 2500 cells/well in glucose medium for the 72-hour assay onto the assay plates. After approximately 24 hours of incubation at 37°C in 5% CO2, the cells were incubated with test solutions under the same conditions for 24 hours for the plate with 5000 cells/well or 72 hours for the plate with 2500 cells/well. After the incubation, CellTiter-Glo® (Promega Co., Ltd., WI, USA) was added to the assay plates, cells were incubated for 30 minutes, and luminescence was recorded to measure the ATP content using an EnVision plate reader (PerkinElmer Co., Ltd., MA, USA). The test compound TAK-994 was evaluated at concentrations of 0.046, 0.14, 0.41, 1.2, 3.7, 11, 33, and 100 μM. Positive controls rotenone and staurosporine were purchased from FUJIFILM Wako Pure Chemical Corporation (Osaka, Japan) and evaluated at concentrations of 0.046, 0.14, 0.41, 1.2, 3.7, 11, 33, and 100 μM in DMSO (rotenone) or 0.0046, 0.014, 0.041, 0.12, 0.37, 1.1 , 3.3, and 10 μM in DMSO (staurosporine). Two experiments were conducted at each concentration.
Inhibition rate (%) = (1-mean of sample values / mean of Max values) × 100, where Max values = vehicle control.

human liver microtissues [5] = experiment: Glutathione depletion (BSO) assay in liver microtissues; format: cell-based
Procedure: as §2
Co-culture model cells were pretreated with BSO (150 μM in DMSO) and then exposed to TAK-994 (0.1, 0.3, 1, 3.16, 10, 31.6, or 100 μM in 0.5% DMSO) in the presence and absence of BSO for 14 days (during the treatment period, TAK-994 with or without BSO was administered on Days 0, 5, and 9). Six replicates were tested for each condition. The vehicle control was 0.5% DMSO and the positive control was acetaminophen (0.6, 1.25, 2.5, or 5 mM in Medium TOX). Cellular ATP content was measured in the cell lysate on Day 14 of treatment. LDH release was measured on Days 5, 9, and 14 in the cell supernatant. For cells administered BSO alone, cellular ATP content was also measured on Day 3 and LDH release was also determined between Days 0 to 3. LDH measurements were normalized to lysed controls. Cellular GSH content was measured by GSH-Glo™ Glutathione Assay (Promega) on Days 0, 3, and 14 in the positive control group.
as §1

human hepatocytes = tested on: human hepatocytes; design: method as in Thompson et al. 2012; conditions: ref Thompson et al. 2012; cited from earlier work

CN(C)CCCN1c2ccccc2Sc2ccc(Cl)cc21 [Chlorpromazine, chlorpromazine, reference compound] gave an IC50 [1] of 8.35 µM, an IC50 (Hepatocyte spheroids) of 9.26 µM and an IC50 (human liver microtissues [2]; Homo sapiens, 336 h, without FFA, read-out: IC50, co-culture (14 days) (Fig. 3A)) of 6.16 µM. It also gave an IC50 (human liver microtissues [2]; Homo sapiens, cellular ATP, read-out: IC50, liver microtissues (Fig. 2B)) of 7.64 µM.
For COc1cccc([C@H]2O[C@H](CC(=O)N3CCC(CC(=O)O)CC3)C(=O)N(CC(C)(C)COC(C)=O)c3ccc(Cl)cc32)c1OC [TAK-475], the IC50 at 24 h [3] was > 100 µM, the IC50 at 72 h [4] was > 100 µM and the IC50 (human liver microtissues [2]; Homo sapiens, 336 h, read-out: Liver microtissue toxicity for 14 days IC50) was 58.6 µM. For the same compound, the “detection of hepatotoxicity by HepG2 72-h / human liver microtissue assays” value (human liver microtissues [2]) was “detected”.
With Cc1cc(OCCCS(C)(=O)=O)cc(C)c1-c1cccc(COc2ccc3c(c2)OC[C@H]3CC(=O)O)c1 [TAK-875] the IC50 at 24 h [3] was > 100 µM, the IC50 at 72 h [4] was > 100 µM and the IC50 (human liver microtissues [2]; read-out: Liver microtissue toxicity for 14 days IC50) was 12.7 µM. For the same compound, the “detection of hepatotoxicity by HepG2 72-h / human liver microtissue assays” value (human liver microtissues [2]) was “detected”.
With CC(=O)Nc1ccc(O)cc1 [acetaminophen, reference compound] the “sensitization of liver microtissues by buthionine sulfoximine depletion” value (human liver microtissues [5]) was “induced liver microtissue sensitivity”.
For Cc1c(C(=O)NN2CCCCC2)nn(-c2ccc(Cl)cc2Cl)c1-c1ccc(Cl)cc1 [rimonabant], the “CVB of marketed drugs without high risk of hepatotoxicity” value (human hepatocytes) is listed as “elevated CVB”.
